According to US10597388B2, “Pyridazinone herbicides” (FMC CORPORATION, priority 2014, dated 2020):

Legend:
Experiment in all cases: Test D controlled growth environment herbicide test, pre- and postemergence
Format in all cases: in vivo
[1] = tested on: lambsquarters (Chenopodium album)
In short: (§1)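 Rating is visual, 0–100 scale (100 = complete control), made against untreated plants 14–21 d after treatment in controlled growth conditions. Postemergence sprays went onto 1- to 4-leaf plants in peat medium; preemergence sprays onto silt loam after sowing; formulation included a surfactant.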

[2] = tested on: chickweed (common chickweed, Stellaria media)
In short: as §1

[3] = tested on: bromegrass, downy (downy bromegrass, Bromus tectorum)
In short: as §1

[4] = tested on: wheat, winter (winter wheat, Triticum aestivum)
In short: as §1

[5] = tested on: deadnettle (henbit deadnettle, Lamium amplexicaule)
In short: as §1

[6] = tested on: galium (catchweed bedstraw, Galium aparine)
In short: as §1

[7] = tested on: canarygrass (Phalaris minor)
In short: as §1

[8] = tested on: ryegrass, Italian (Italian ryegrass, Lolium multiflorum)
In short: as §1

[9] = tested on: chamomile (scentless chamomile, Matricaria inodora)
In short: as §1

[10] = tested on: windgrass (Apera spica-venti)
In short: as §1

[11] = tested on: field violet (Viola arvensis)
In short: as §1

[12] = tested on: foxtail, green (green foxtail, Setaria viridis)
In short: as §1

[13] = tested on: oilseed rape (Brassica napus)
In short: as §1

[14] = tested on: buckwheat, wild (wild buckwheat, Polygonum convolvulus)
In short: as §1

[15] = Postemergence, 31 g ai/ha, scale 0 to 100 (0 no effect, 100 complete control)
[16] = Postemergence, 125 g ai/ha, visual rating on scale 0 (no effect) to 100 (complete control), 14 to 21 d
[17] = Postemergence, 250 g ai/ha, scale 0 to 100 (0 no effect, 100 complete control)
[18] = Preemergence, 62 g ai/ha, scale 0 to 100 (0 no effect, 100 complete control)
[19] = Preemergence, 125 g ai/ha, scale 0 to 100 (0 no effect, 100 complete control)
[20] = Preemergence, 250 g ai/ha, scale 0 to 100, 0 no effect, 100 complete control
[21] = postemergence, 62 g ai/ha, scale 0 to 100, 0 no effect, 100 complete control

## Cc1ccc2ccccc2c1-c1c(OC(=O)OC(C)C)c(C)nn(C)c1=O [Compound 72]
[1]; [15]
  Lambsquarters plant response rating: 80
[1]; [16]
  Plant response rating, Lambsquarters: 90
[1]; [17]
  Plant response rating, Lambsquarters: 100
[1]; Preemergence, 31 g ai/ha
  Plant response rating (scale of 0 to 100), Lambsquarters: 35
[1]; [18]
  Plant response rating, Lambsquarters: 100
[1]; [19]
  Plant response rating, Lambsquarters: 95
[1]; [20]
  Plant response rating, Lambsquarters: 95
[1]; [21]
  Plant response rating, Lambsquarters: 95
[2]; [15]
  Chickweed plant response rating: 98
[2]; [16]
  Plant response rating, Chickweed: 100
[2]; [17]
  Plant response rating, Chickweed: 100
[2]; Preemergence, 31 g ai/ha
  Plant response rating (scale of 0 to 100), Chickweed: 70
[2]; [18]
  Plant response rating, Chickweed: 100
[2]; [19]
  Plant response rating, Chickweed: 100
[2]; [20]
  Plant response rating, Chickweed: 100
[2]; [21]
  Plant response rating, Chickweed: 100
[3]; [15]
  Bromegrass, Downy plant response rating: 45
[3]; [16]
  Plant response rating, Bromegrass, Downy: 65
[3]; [17]
  Plant response rating, Bromegrass, Downy: 75
[3]; Preemergence, 31 g ai/ha
  Plant response rating (scale of 0 to 100), Bromegrass, Downy: 0
[3]; [18]
  Plant response rating, Bromegrass, Downy: 0
[3]; [19]
  Plant response rating, Bromegrass, Downy: 35
[3]; [20]
  Plant response rating, Bromegrass, Downy: 60
[3]; [21]
  Plant response rating, Bromegrass, Downy: 55
[4]; [15]
  Wheat, Winter plant response rating: 25
[4]; [16]
  Plant response rating, Wheat, Winter: 50
[4]; [17]
  Plant response rating, Wheat, Winter: 60
[4]; Preemergence, 31 g ai/ha
  Plant response rating (scale of 0 to 100), Wheat, Winter: 5
[4]; [18]
  Plant response rating, Wheat, Winter: 10
[4]; [19]
  Plant response rating, Wheat, Winter: 25
[4]; [20]
  Plant response rating, Wheat, Winter: 45
[4]; [21]
  Plant response rating, Wheat, Winter: 35
[5]; [15]
  Deadnettle plant response rating: 85
[5]; [16]
  Plant response rating, Deadnettle: 100
[5]; [17]
  Plant response rating, Deadnettle: 100
[5]; Preemergence, 31 g ai/ha
  Plant response rating (scale of 0 to 100), Deadnettle: 5
[5]; [18]
  Plant response rating, Deadnettle: 15
[5]; [19]
  Plant response rating, Deadnettle: 65
[5]; [20]
  Plant response rating, Deadnettle: 70
[5]; [21]
  Plant response rating, Deadnettle: 90
[6]; [15]
  Galium plant response rating: 95
[6]; [16]
  Plant response rating, Galium: 100
[6]; [17]
  Plant response rating, Galium: 100
[6]; Preemergence, 31 g ai/ha
  Plant response rating (scale of 0 to 100), Galium: 20
[6]; [18]
  Plant response rating, Galium: 60
[6]; [19]
  Plant response rating, Galium: 70
[6]; [20]
  Plant response rating, Galium: 85
[6]; [21]
  Plant response rating, Galium: 100
[7]; [15]
  Canarygrass plant response rating: 40
[7]; [16]
  Plant response rating, Canarygrass: 80
[7]; [17]
  Plant response rating, Canarygrass: 85
[7]; Preemergence, 31 g ai/ha
  Plant response rating (scale of 0 to 100), Canarygrass: 0
[7]; [18]
  Plant response rating, Canarygrass: 80
[7]; [19]
  Plant response rating, Canarygrass: 85
[7]; [20]
  Plant response rating, Canarygrass: 95
[7]; [21]
  Plant response rating, Canarygrass: 50
[8]; [15]
  Ryegrass, Italian plant response rating: 95
[8]; [16]
  Plant response rating, Ryegrass, Italian: 95
[8]; [17]
  Plant response rating, Ryegrass, Italian: 100
[8]; Preemergence, 31 g ai/ha
  Plant response rating (scale of 0 to 100), Ryegrass, Italian: 55
[8]; [18]
  Plant response rating, Ryegrass, Italian: 75
[8]; [19]
  Plant response rating, Ryegrass, Italian: 100
[8]; [20]
  Plant response rating, Ryegrass, Italian: 90
[8]; [21]
  Plant response rating, Ryegrass, Italian: 95
[9]; [15]
  Chamomile plant response rating: 75
[9]; [16]
  Plant response rating, Chamomile: 85
[9]; [17]
  Plant response rating, Chamomile: 100
[9]; [21]
  Plant response rating, Chamomile: 80
[10]; [15]
  Windgrass plant response rating: 65
[10]; [16]
  Plant response rating, Windgrass: 80
[10]; [17]
  Plant response rating, Windgrass: 85
[10]; Preemergence, 31 g ai/ha
  Plant response rating (scale of 0 to 100), Windgrass: 25
[10]; [18]
  Plant response rating, Windgrass: 65
[10]; [19]
  Plant response rating, Windgrass: 80
[10]; [20]
  Plant response rating, Windgrass: 90
[10]; [21]
  Plant response rating, Windgrass: 75
[11]; [15]
  Field Violet plant response rating: 90
[11]; [16]
  Plant response rating, Field Violet: 95
[11]; [17]
  Plant response rating, Field Violet: 95
[11]; Preemergence, 31 g ai/ha
  Plant response rating (scale of 0 to 100), Field Violet: 10
[11]; [18]
  Plant response rating, Field Violet: 75
[11]; [19]
  Plant response rating, Field Violet: 75
[11]; [20]
  Plant response rating, Field Violet: 95
[11]; [21]
  Plant response rating, Field Violet: 95
[12]; [15]
  Foxtail, Green plant response rating: 60
[12]; [16]
  Plant response rating, Foxtail, Green: 70
[12]; [17]
  Plant response rating, Foxtail, Green: 75
[12]; Preemergence, 31 g ai/ha
  Plant response rating (scale of 0 to 100), Foxtail, Green: 20
[12]; [18]
  Plant response rating, Foxtail, Green: 30
[12]; [19]
  Plant response rating, Foxtail, Green: 60
[12]; [20]
  Plant response rating, Foxtail, Green: 85
[12]; [21]
  Plant response rating, Foxtail, Green: 65
[13]; [15]
  Oilseed Rape plant response rating: 65
[13]; [16]
  Plant response rating, Oilseed Rape: 80
[13]; [17]
  Plant response rating, Oilseed Rape: 90
[13]; Preemergence, 31 g ai/ha
  Plant response rating (scale of 0 to 100), Oilseed Rape: 5
[13]; [18]
  Plant response rating, Oilseed Rape: 15
[13]; [19]
  Plant response rating, Oilseed Rape: 15
[13]; [20]
  Plant response rating, Oilseed Rape: 25
[13]; [21]
  Plant response rating, Oilseed Rape: 70
[14]; [15]
  Buckwheat, Wild plant response rating: 95
[14]; [16]
  Plant response rating, Buckwheat, Wild: 100
[14]; [17]
  Plant response rating, Buckwheat, Wild: 100
[14]; Preemergence, 31 g ai/ha
  Plant response rating (scale of 0 to 100), Buckwheat, Wild: 0
[14]; [18]
  Plant response rating, Buckwheat, Wild: 0
[14]; [19]
  Plant response rating, Buckwheat, Wild: 15
[14]; [20]
  Plant response rating, Buckwheat, Wild: 10
[14]; [21]
  Plant response rating, Buckwheat, Wild: 100
